# Test results taken from PMC5760734, “Development of an oral once-weekly drug delivery system for HIV antiretroviral therapy” (Nature Communications, 2018).
# Experiments:
# [1] = design: method as in ref 58 (a number printed in a supplementary file, which may have a reference list of its own: not looked up in the article's list); conditions: cited from earlier work
# [2] = Drug stability at high temperature (150 °C, 2 h), HPLC; type: physicochemical; conditions: 150 °C for 2 h
# Method: To determine the drug stability at high temperatures, the drug was weighed in a 20 mL glass vial, and placed in a convection oven at 150 °C for 2 h. Drug was dissolved in methanol, and the concentration was compared to that of an unheated standard of the same initial concentration via HPLC.
# [3] = Plasma pharmacokinetics of immediate release and gastric resident dosage forms in pigs; type: in vivo, Yorkshire pigs
# Method: All animal experiments were approved by the Committee on Animal Care at the Massachusetts Institute of Technology. In vivo pharmacokinetics were evaluated in an unblinded fashion in female Yorkshire pigs (50–95 kg) that were randomly assigned to the immediate release or sustained release groups. Animals were fed daily in the morning and in the evening with a diet consisting of pellets (Laboratory mini-pig growler diet, 5081), with a midday snack consisting of various fruits and vegetables. Specifically, the pellets were 5/32” x ¼” length, and consisted of ground oats, alfalfa meal, wheat middlings, soybean meal, dried beet pulp, salts and other micronutrients.
# To determine the oral pharmacokinetics of immediate release dosage forms of DTG and CAB, 50 mg of DTG and 30 mg of CAB were weighed and filled into gelatine capsules. For RPV pharmacokinetics, RPV base was dissolved in poly(ethylene glycol) (molecular weight—400 Da) containing 10-fold molar excess of citric acid. The concentration of RPV base in this solution was 5 mg/mL and 5 mL of the solution was dosed in a gelatine capsule. […] To determine oral pharmacokinetics from gastric retentive dosage forms, the arms of dosage forms (2–3/pig containing 350 mg DTG, 175 mg RPV or 210 mg CAB) were folded into capsule shells immediately prior to dosing. […]. The capsules containing drug or dosage form were delivered into the intestine or stomach respectively. At various time points, blood samples (0.5 mL) were collected from a central line connected to the external jugular vein or from a mammary vein into […] Vacutainer gold top tubes (Becton, Dickinson and Co. USA). Plasma samples were separated from blood by centrifugation (1800g, 10 min at 4 °C) and were stored at −80 °C. Atropine can reduce gastric acid production and gastric motility which may affect the overall drug pharmacokinetics and the gastric retention of the dosage form. […]. Drug concentrations in the plasma were analysed using UPLC-MS/MS. Plasma samples (100 µL) were spiked with 200 µL acetonitrile solution of 250 µg/mL maraviroc (internal standard) to cause precipitation. Samples were vortexed and sonicated for 10–20 min and then centrifuged (21130g, 10 min). Two hundred microliters of solution were pipetted into a 96-well plate containing 200 µL of nanopure water. Finally, 2.5 μL was injected onto the UPLC–ESI–MS system for analysis.
# UPLC separation was carried out on a Waters® UPLC aligned with a Waters® Xevo–TQ-SMS mass spectrometer (Waters Ltd., UK). MassLynx® 4.1 software was used for data acquisition and analysis. Liquid chromatography separation was performed on an Acquity® UPLC CSH C18 (50 × 2.1 mm, 1.7 μm particle size) column at 50 °C. The mobile phase consisted of acetonitrile spiked with 0.1% formic acid and 10 mM ammonium formate solution. The mobile phase was flowed at a rate of 0.6 mL/min using a time and solvent gradient composition. The initial composition (100% aqueous) was held for 1 min, following which the composition was changed linearly to 20% organic phase over the next 0.25 min. The composition was then brought to 100% organic over 1.25 min, held for 0.5 min and finally shifted to the initial composition and held constant until the end of the run for column equilibration. The total run time was 4 min and sample injection volume was 2.5 μL. The mass spectrometer was operated in the multiple reaction monitoring (MRM) mode. Sample introduction and ionization was by electrospray ionization (ESI) in the positive ion mode. DTG, RPV and CAB were analysed at mass-to-charge ratios of […] respectively. Stock solutions of DTG, RPV, CAB, and an internal standard maraviroc were prepared in methanol at a concentration of 500 μg/mL. A ten-point calibration curve was prepared ranging from 2.5–5000 ng/mL. Quality control samples were prepared in a similar procedure using an independent stock solution at three concentrations (5, 50 and 500 ng/mL). […]
# [4] = Drug release from polymer matrices in SGF; type: physicochemical; conditions: for drug released: n = 3
# Method: Drug loaded polymer matrices were synthesized by melt mixing. Appropriate amounts of drug and polymer were weighed and mixed in a 20 mL glass vial. The vial was then placed in a convection oven at 130 °C to melt the polymer. The mixture was then transferred to a negative mould heated to the same temperature. Once the mould was filled with the melted mixture, it was removed from the oven and cooled at room temperature.
# Drug release studies were performed in SGF supplemented with 5%w/w Tween® 20. The drug–polymer matrices were placed in 50 mL release media at 37 °C in an incubator shaker at 150 r.p.m. At various times, about 1 mL of the media was collected and stored at −20 °C until further analysis. The rest of the media was discarded and the drug–polymer matrix was placed in fresh media. Drug concentrations in the aliquots were measured using HPLC as described previously.
# [5] = immediate release formulation, pigs
compound,measurement,setting,value
"C[C@@H]1CCO[C@H]2Cn3cc(C(=O)NCc4ccc(F)cc4F)c(=O)c(O)c3C(=O)N12 [DTG, dolutegravir]","Half-life, τ1/2",[1],14 h
same,Cmax,"[1]; maximum plasma concentration at steady state, perfect adherence",8.75 µM
same,stability at elevated temperature,[2],stable
same,Tmax,"[3]; female, Yorkshire, pig, plasma, oral, immediate release formulation, pigs, post-dose, read-out: time of maximum plasma concentration (converted)",6 h
same,mean peak plasma concentration relative to immediate release,"[3]; gastric resident system, pigs",comparable to that of the immediate release formulation
same,time to mean peak plasma concentration,"[3]; gastric resident system, pigs",≤ 6 h
same,average (sustained) plasma drug concentrations throughout the week following dosing,"[3]; gastric resident system, pigs, n = 3",200 to 800 ng/mL
same,duration of sustained drug concentrations,"[3]; gastric resident system, single dose",up to 1 week
same,day at or after which no drug was detected in plasma,[3]; [5],2 days
same,plasma drug concentrations on day 1,[3]; [5],low but detectable
same,time to detectable plasma concentrations,[3]; [5],≤ 15 min
same,average maximum plasma concentration,"[3]; immediate release formulation, pigs, n = 3",~ 500 ng/mL
same,drug released,"[4]; PCL matrix, over a week",5%
same,total drug release from poly(anhydrides) relative to PCL,[4]; poly(anhydride) matrices vs PCL,4–8 fold
same,drug released,"[4]; poly(ethylene glycol) matrix, within the first 6 h",60–70%
